ChEMBL document CHEMBL2062461 (Eur J Med Chem, 2012)

How the values were obtained:
[1] = target: Cholinesterase (Homo sapiens, UniProt P06276)
Description: Inhibition of human plasmatic BChE using butylthiocholne substrate preincubated for 5 mins before substrate addition by Ellman's method

[2] = target: T1, Acetylcholinesterase (Homo sapiens, UniProt P22303)
Description: Inhibition of human recombinant AChE assessed as dissociation constant for enzyme-inhibitor complex using acetylthiocholine substrate preincubated for 5 mins before substrate addition by Ellman's method

[3] = target: T1, Acetylcholinesterase; remark: listed apart in the source
Description: Inhibition of human recombinant AChE using acetylthiocholine substrate preincubated for 5 mins before substrate addition by Ellman's method

[4] = target: T1, Acetylcholinesterase; remark: listed apart in the source
Description: Inhibition of human recombinant AChE assessed as dissociation constant for enzyme-inhibitor-substrate complex using acetylthiocholine substrate preincubated for 5 mins before substrate addition by Ellman's method

T1 sequence (P22303 whole entry): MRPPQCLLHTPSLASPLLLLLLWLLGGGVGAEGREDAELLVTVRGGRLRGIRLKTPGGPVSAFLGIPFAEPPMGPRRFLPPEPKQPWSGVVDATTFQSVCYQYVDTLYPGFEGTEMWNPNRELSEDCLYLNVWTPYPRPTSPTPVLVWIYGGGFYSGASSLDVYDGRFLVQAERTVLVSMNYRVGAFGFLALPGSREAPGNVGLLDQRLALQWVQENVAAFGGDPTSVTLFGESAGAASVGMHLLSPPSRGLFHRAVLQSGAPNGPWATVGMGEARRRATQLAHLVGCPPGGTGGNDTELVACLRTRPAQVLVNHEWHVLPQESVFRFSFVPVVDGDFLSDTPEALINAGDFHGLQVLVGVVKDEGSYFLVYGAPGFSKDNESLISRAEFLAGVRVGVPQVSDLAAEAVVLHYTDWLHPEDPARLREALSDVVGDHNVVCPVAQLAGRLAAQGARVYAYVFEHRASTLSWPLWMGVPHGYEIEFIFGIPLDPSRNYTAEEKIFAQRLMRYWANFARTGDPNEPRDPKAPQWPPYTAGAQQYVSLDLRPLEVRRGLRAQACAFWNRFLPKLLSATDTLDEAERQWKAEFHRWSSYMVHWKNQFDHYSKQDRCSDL
Sequence of Cholinesterase (P06276 whole entry): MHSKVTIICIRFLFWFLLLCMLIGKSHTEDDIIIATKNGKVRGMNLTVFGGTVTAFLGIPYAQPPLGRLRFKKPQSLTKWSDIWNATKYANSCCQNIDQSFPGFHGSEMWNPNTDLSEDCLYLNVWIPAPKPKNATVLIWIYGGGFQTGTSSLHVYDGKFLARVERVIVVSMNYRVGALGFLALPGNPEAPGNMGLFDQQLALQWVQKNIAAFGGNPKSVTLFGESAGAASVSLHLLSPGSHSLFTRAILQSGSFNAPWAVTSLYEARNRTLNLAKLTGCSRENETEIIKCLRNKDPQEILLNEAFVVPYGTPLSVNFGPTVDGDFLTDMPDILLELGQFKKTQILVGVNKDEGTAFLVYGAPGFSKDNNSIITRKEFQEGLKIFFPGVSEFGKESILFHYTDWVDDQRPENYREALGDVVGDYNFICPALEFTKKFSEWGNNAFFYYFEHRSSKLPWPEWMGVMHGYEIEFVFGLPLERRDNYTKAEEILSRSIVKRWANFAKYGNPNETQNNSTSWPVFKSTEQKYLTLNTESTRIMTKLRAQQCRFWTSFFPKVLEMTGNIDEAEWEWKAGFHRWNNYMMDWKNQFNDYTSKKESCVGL

In the case of CN(CCC(=O)N1CCN(CCNc2c3c(nc4ccccc24)CCCC3)CC1)C1CCCCC1, the IC50 [1] is reported as 63.7 nM, the Ki [2] is reported as 0.38 nM and the IC50 [3] is reported as 14.9 nM. It also gave a Ki [4] of 0.318 nM.

Work on CN(CCC(=O)N1CCN(CCNc2c3c(nc4ccccc24)CCCC3)CC1)c1ccccc1 yielded an IC50 [1] of 33.7 nM, a Ki [2] of 13.7 nM and an IC50 [3] of 70.3 nM. It also gave a Ki [4] of 85.5 nM.

With O=C(CCN1CCCCC1)N1CCN(CCNc2c3c(nc4ccccc24)CCCC3)CC1 the IC50 [1] was 77.8 nM, the Ki [2] was 16.8 nM and the IC50 [3] was 51.7 nM. The Ki [4] was 76.1 nM.

In the case of CCN(CCCN1CCN(CCNc2c3c(nc4ccccc24)CCCC3)CC1)C1CCCCC1, the IC50 [1] is reported as 126 nM and the IC50 [3] is reported as 194 nM.

CCN(CCC(=O)N1CCN(CCNc2c3c(nc4ccccc24)CCCC3)CC1)C1CCCCC1 gave an IC50 [1] of 41.2 nM, a Ki [2] of 1.35 nM and an IC50 [3] of 4.97 nM. The Ki [4] was 3.73 nM.

Work on CN(CCCN1CCN(CCNc2c3c(nc4ccccc24)CCCC3)CC1)c1ccccc1 yielded an IC50 [1] of 211 nM, a Ki [2] of 80 nM and an IC50 [3] of 84.8 nM. For the same compound, the Ki [4] was 24.7 nM.

CN(CCCN1CCN(CCNc2c3c(nc4ccccc24)CCCC3)CC1)C1CCCCC1 gave an IC50 [1] of 137 nM, a Ki [2] of 10.3 nM and an IC50 [3] of 40.7 nM. The Ki [4] was 47.6 nM.

O=C(CCNCCNc1c2c(nc3ccccc13)CCCC2)N1CCN(CCNc2c3c(nc4ccccc24)CCCC3)CC1 showed an IC50 [1] of 1520 nM and an IC50 [3] of 4.49 nM.
